From publication PMC4261997 (British Journal of Pharmacology, 2014)

Key:
[1] = target: β2-adrenoceptor; settings: read-out: affinity value for the β2-adrenoceptor; ref Baker et al., [2003b]; cited from earlier work
[2] = target: T1, human β1-adrenoceptor (Homo sapiens, UniProt P08588); experiment: CRE-mediated SPAP transcription reporter gene assay in CHO-β1 cells; format: cell-based; settings: for Proportion of low-affinity secondary site (site 2) bound: calculated from affinity values of the functional responses
T1 sequence (P08588 whole entry): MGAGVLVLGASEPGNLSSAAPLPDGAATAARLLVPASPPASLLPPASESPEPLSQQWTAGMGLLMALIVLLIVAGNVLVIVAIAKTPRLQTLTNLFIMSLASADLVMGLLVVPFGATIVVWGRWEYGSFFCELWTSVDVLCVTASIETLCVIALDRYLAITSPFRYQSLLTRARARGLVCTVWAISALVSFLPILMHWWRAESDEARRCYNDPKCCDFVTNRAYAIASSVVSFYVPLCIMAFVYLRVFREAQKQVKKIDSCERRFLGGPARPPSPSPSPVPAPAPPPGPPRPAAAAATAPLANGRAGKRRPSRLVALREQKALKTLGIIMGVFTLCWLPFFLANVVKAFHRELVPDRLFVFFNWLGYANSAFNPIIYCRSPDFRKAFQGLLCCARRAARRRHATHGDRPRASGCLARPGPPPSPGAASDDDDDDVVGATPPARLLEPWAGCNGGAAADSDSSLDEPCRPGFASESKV

[3] = target: T1, human β1-adrenoceptor; experiment: Automated live cell BODIPY-TMR-CGP binding, ImageXpress ultra confocal plate reader, CHO-β1 cells; settings: 100 nM BOD-CGP; from two-site inhibition curve of the named antagonist, 1 h incubations

## Bordifluoropyrromethane-tetramethylrhodamine-(±)CGP 12177 [BODIPY-TMR-CGP]
[1]
  Kd: 0.025 µM
[2]; 2 nM BODIPY-TMR-CGP
  Proportion of low-affinity secondary site (site 2) bound: 2%
[2]; 20 nM BODIPY-TMR-CGP
  Proportion of low-affinity secondary site (site 2) bound: circa 17%
[2]; % of the maximum cimaterol response, CHO-β1 cells
  EMAX (% cimaterol): 25.6 ± 3.2 %
[2]; agonist stimulation of SPAP transcription, CHO-β1 cells
  pEC50: 7.12 ± 0.13
[2]; antagonism of CGP 12177 concentration-response curves, low-affinity site 2
  pKD (against CGP 12177): 7.28 ± 0.22
[2]; antagonism of cimaterol concentration-response curves, high-affinity site 1
  pKD (against cimaterol): 9.23 ± 0.06
[2]; from partial agonist concentration-response curve, operational model, cimaterol as full agonist, site 2
  pKA (partial agonism): 7.06 ± 0.13
[3]
  Fraction of BOD-CGP bound to the low-affinity binding site (%): 42.8 ± 0.9%
